{"source": "patent US10092644B2", "about": "“Use of fluorinated cyclic dinucleotides as oral vaccine adjuvants” (BROCK UNIVERSITY, priority 2013, dated 2018)", "key": {"[1]": {"system": "pneumococcal surface adhesion A (Psa)", "conditions": "mice, intranasally, Psa together with c-di-GMP (Yan et al. 2009); cited from earlier work"}, "[2]": {"system": "recombinant PsaA protein of S. pneumoniae", "assay": "Intranasal immunization of mice with PsaA admixed with adjuvant; ELISA for PsaA-specific IgA and IgG isotypes", "type": "in vivo, BALB/c mice", "source_text": "Mice. Six to eight-week-old female BALB/c or C57BL/6 mice were purchased from Charles Rivers Laboratories (St. Constant, Quebec). The animals were housed under specific-pathogen-free conditions in a federally licensed small animal containment level 2 facility, and given free access to sterile water and certified mouse chow. The animals were maintained and used in accordance with the recommendations of the Canadian Council on Animal Care Guide to the Care and Use of Experimental Animals, and the experimental procedures were approved by the institutional animal care committee.\n(§1) Intranasal or oral immunization in mice. For intranasal immunization, mice were lightly anesthetized under isofluorane. On day 0, 14 and 21, groups of mice (n=5) were inoculated with 50 μl of various vaccine preparations or controls as detailed in Examples 1-5. For oral immunization, various vaccine preparations or controls in 0.2 ml volume were administered by gavage via an 18-gauge feeding needle.\nAt day 28, blood and mucosal samples (fecal pellets or/and vaginal wash) were collected as described elsewhere (Patel G B, Zhou H, Ponce A, Chen W (2007). Mucosal and systemic immune responses by intranasal immunization using archaeal lipid-adjuvanted vaccines. Vaccine 25: 8622-8636.). In some experiments, nasal wash samples were also collected at the end of experiment. For both the vaginal and nasal wash, the volume of the lavage fluid recovered from each mouse was recorded. Since the recovery of lavage volumes among different mice in our study were very similar (about 90%), the small variation among individual samples was not adjusted. All samples were stored at −20° C. until assay.\nVaginal wash samples were collected by slowly injecting and withdrawing (3-4 times) 50 μl PBS (pH 7.2) into the vagina of conscious mice, using a P100 pipette. The volume of the vaginal lavage fluid recovered from each mouse was recorded.\nEnzyme-linked immunosorbent assay (ELISA) for PsaA-specific IgA and IgG isotypes. Levels of PsaA-specific antibodies in serum and mucosal samples were measured by an enzyme-linked immunosorbent assay (ELISA) modified from a previously described procedure (Yan H, Kuo Lee R, Tram K, Qiu H, Zhang J, Patel G B, Chen W. 3′,5′-Cyclic diguanylic acid elicits mucosal immunity against bacterial infection. Biochemical and Biophysical Research Communications, 2009; 387(3):581-4.). Briefly, 96-well Immunolon 2^R microplates (Thermo Electron Corporation, Milford, Mass.) were coated with 0.5 μg PsaA/well in 100 μl of 0.015 M sodium carbonate and 0.035 M sodium bicarbonate buffer (pH 9.6) at 4° C. overnight. All the subsequent incubations were carried out at room temperature. The wells were blocked by incubation with 5% bovine serum in PBS for 1 h, and then rinsed three times with PBS-0.05% Tween 20. Duplicates of 100 μl pre-diluted samples were added to the wells. Sample dilutions were as follows: 1:2 for fecal extracts and nasal washes, 1:2000 for serum IgG1, 1:500 for serum IgG2a and 1:50 for serum IgA. After the plates were incubated for 3 h, alkaline phosphatase-conjugated goat antibodies specific for mouse IgA, IgG1 and IgG2a (all from Caltag Laboratories, Burlingame, Calif.) were added and incubated for 1 h. Color reactions were developed by the addition of p-nitrophenyl phosphate (pNPP) substrate (KPL, Inc., Gaithersburg, Md.), and optical density was measured at 405 nm with an automated ELISA plate reader (Multiskan Ascent, Thermo Labsystems, Vantaa, Finland). Pooled samples collected from mice that had been intranasally immunized with the PsaA+CT or from the naïve mice were used as positive or negative controls respectively.\nTo determine if 2′-F-c-di-GMP can elicit mucosal immune responses to microbial (bacterial and viral) antigens, groups of BALB/c mice were intranasally (i.n.) immunized with 2 μg recombinant PsaA protein of S. pneumoniae admixed with 2.5 μg 2′-F-c-di-GMP, 2.5 μg c-di-GMP, or 10 μg c-di-GMP at day 0, 14 and 21. […]"}, "[3]": {"system": "S. pneumoniae", "assay": "Mouse S. pneumoniae nasopharyngeal colonization model after intranasal immunization", "type": "in vivo, mice", "protocol": "as §1\nIntranasal challenge of mice with S. pneumoniae. Fresh inocula were prepared for each experiment from a frozen stock of S. pneumoniae (type 14). […] The actual inoculum concentrations were determined by plating 10-fold serial dilutions on chocolate agar. Inoculated mice were sacrificed 3 days later and the nasal cavity was lavaged with 0.5 ml lavage fluid and aliquots (100 μl) of 10-fold serial dilutions of the lavage fluids were cultured, in duplicates, on chocolate agar plates to quantify the number of viable organisms.\nNext, it was determined if the mucosal immune responses induced by the 2′-F-c-di-GMP adjuvanted vaccine are protective against mucosal infections in the well-established mouse S. pneumoniae colonization model. […] Mice were sacrificed 3 days after challenge, and the nasopharyngeal tract was lavaged and bacterial numbers in the nasal wash were determined."}, "[4]": {"system": "Listeria flagellin", "assay": "Oral immunization with Listeria flagellin admixed with adjuvant; ELISA for flagellin-specific antibodies", "type": "in vivo, BALB/c mice", "conditions": "day 35"}, "[5]": {"system": "H. pylori cell-free sonicate extract (HPCE)", "design": "species or system C57BL/6 mice", "conditions": "mouse, in vivo, po"}, "[6]": {"system": "C. difficile flagellin", "assay": "Oral immunization with C. difficile flagellin admixed with adjuvant; ELISA for flagellin-specific antibodies", "type": "in vivo, BALB/c mice", "conditions": "day 35"}, "[7]": {"system": "H. pylori SS1", "assay": "Mouse model of H. pylori gastric colonization after oral immunization", "type": "in vivo, mice"}, "[8]": {"system": "splenocytes stimulated by HPCE", "conditions": "mouse, in vivo, po"}, "[9]": {"conditions": "i.n. 2 μg PsaA admixed with 2.5 μg adjuvant at day 0, 14 and 21, samples day 28, FIG. 1"}, "[10]": {"conditions": "i.n. with 2 μg PsaA, comparator 2.5 μg or 10 μg c-di-GMP"}, "[11]": {"conditions": "oral 50 μg Listeria flagellin + 75 μg adjuvant"}, "[12]": {"conditions": "oral 30 μg C. difficile flagellin + 75 μg adjuvant"}}, "data": [{"molecule": "Nc1nc2c(ncn2C2OC3COP(=O)(O)OC4C(COP(=O)(O)OC3C2O)OC(n2cnc3c(=O)[nH]c(N)nc32)C4O)c(=O)[nH]1", "note": "(centres unmarked) [c-di-GMP, 3′,5′-cyclic diguanylic acid]", "values": [{"measurement": "antigen specific antibody response", "setting": "[1]", "value": "enhanced"}]}, {"molecule": "2′-F-c-di-GMP", "values": [{"measurement": "PsaA-specific IgA in feces", "setting": "[2]; [9]", "value": "high level"}, {"measurement": "PsaA-specific IgA in nasal wash", "setting": "[2]; [9]", "value": "high level"}, {"measurement": "PsaA-specific IgA in serum", "setting": "[2]; [9]", "value": "high level"}, {"measurement": "PsaA-specific serum IgG1 level", "setting": "[2]; [9]", "value": "high level"}, {"measurement": "PsaA-specific serum IgG2a level", "setting": "[2]; [9]", "value": "high level"}, {"measurement": "IgG2a response in the serum compared to parental c-di-GMP", "setting": "[2]; [10]", "value": "stronger"}, {"measurement": "antigen-specific IgA response in feces compared to parental c-di-GMP", "setting": "[2]; [10]", "value": "stronger"}, {"measurement": "antigen-specific IgA response in vaginal washings compared to parental c-di-GMP", "setting": "[2]; [10]", "value": "stronger"}, {"measurement": "magnitude of reduction of S. pneumoniae colonization relative to PsaA+CT immunized mice", "setting": "[3]; PsaA+2′-F-c-di-GMP i.n., PsaA+CT data from Yan et al. 2009", "value": "comparable"}, {"measurement": "nasopharyngeal colonization of S. pneumoniae compared to sham-immunized mice", "setting": "[3]; i.n. immunization, i.n. challenge 4.55×10^6 CFU at day 35, nasal wash bacterial numbers 3 days after challenge, P<0.05 for adjuvanted group, FIG. 2", "value": "significantly reduced colonization"}, {"measurement": "IgG1 response in the serum compared with sham-immunized mice", "setting": "[4]; [11]", "value": "substantially higher"}, {"measurement": "IgG2a response in the serum compared with sham-immunized mice", "setting": "[4]; [11]", "value": "substantially higher"}, {"measurement": "antigen-specific IgA response in feces compared with sham-immunized mice", "setting": "[4]; [11]", "value": "substantially higher"}, {"measurement": "Listeria flagellin-specific IgA in feces", "setting": "[4]; oral 50 μg Listeria flagellin admixed with 75 μg adjuvant day 0, 14, 21, FIG. 6", "value": "small amount"}, {"measurement": "IgG2a response in the serum compared with sham-immunized mice", "setting": "[5]", "value": "substantially higher"}, {"measurement": "antigen-specific IgA level in feces", "setting": "[5]", "value": "substantial amount"}, {"measurement": "antigen-specific IgA level in serum", "setting": "[5]", "value": "substantial amount"}, {"measurement": "antigen-specific IgA response in feces compared with sham-immunized mice", "setting": "[5]", "value": "substantially higher"}, {"measurement": "antigen-specific serum IgG1 level", "setting": "[5]", "value": "substantial amount"}, {"measurement": "antigen-specific serum IgG2a level", "setting": "[5]", "value": "substantial amount"}, {"measurement": "IgG1 response in the serum compared with sham-immunized mice", "setting": "[6]; [12]", "value": "substantially higher"}, {"measurement": "IgG2a response in the serum compared with sham-immunized mice", "setting": "[6]; [12]", "value": "substantially higher"}, {"measurement": "antigen-specific IgA response in feces compared with sham-immunized mice", "setting": "[6]; [12]", "value": "substantially higher"}, {"measurement": "C. difficile flagellin-specific IgA in feces", "setting": "[6]; oral 30 μg C. difficile flagellin admixed with 75 μg adjuvant day 0, 14, 21, FIG. 6", "value": "substantial amount"}, {"measurement": "magnitude of reduction of H. pylori colonization relative to HPCE adjuvanted with CT", "setting": "[7]; HPCE+2′-F-c-di-GMP vs HPCE+CT, oral", "value": "comparable"}, {"measurement": "bacterial burdens in the gastric mucosa compared to sham (PBS)-immunized mice", "setting": "[7]; both low or high doses of HPCE + 2′-F-c-di-GMP, oral", "value": "significantly reduced bacterial burdens"}, {"measurement": "gastric colonization of H. pylori compared to sham-immunized mice", "setting": "[7]; oral immunization, oral challenge 10^8 CFU H. pylori SS1 three times from day 35, stomach 6 weeks after first challenge, P<0.05 for adjuvanted group, FIG. 5", "value": "significantly reduced colonization"}, {"measurement": "IFN-γ produced by splenocytes compared to cells from CT-immunized mice", "setting": "[8]", "value": "even higher"}, {"measurement": "IFN-γ produced by splenocytes compared to sham-immunized mice", "setting": "[8]", "value": "substantially higher"}, {"measurement": "IL-2 produced by splenocytes compared to sham-immunized mice", "setting": "[8]", "value": "substantially higher"}, {"measurement": "IL-17 produced by splenocytes compared to sham-immunized mice", "setting": "[8]", "value": "substantially higher"}]}]}
